pIC50: −log10 of the molar value. Non-standard residues stand in square brackets, D forms with d. Residues, ends and D or L forms follow the SMILES beside them. No end group written: not given here.
Experiments:
S. mitis ComD-2 receptor = experiment: luminescence reporter competitive inhibition assay (comX expression); assay type: cell-based, Streptococcus mitis; conditions: same reporter strain; competition against 1 μM native S. mitis-CSP-2; 30 min at 37 °C; triplicate on three separate days
Experimental: As a positive control, 2 μl of S. mitis-CSP-2 and 2 μl of DMSO were added to the same well in triplicate. As a negative control, 4 μl of DMSO was added in triplicate. Then, 2 μl of 15 mg/ml D-luciferin in distilled water was added to each experimental or control well, after which 194 μl of bacteria was added, and the plate was incubated for 30 min at 37 °C. Following incubation, the A600 and luminescence of each experimental well were measured. Results were reported as percent activation, which is the ratio between the luminescence (presented as relative luminescence units, RLU/A600) of the analog and that of the positive control. […] GraphPad Prism was used to calculate the IC50 values, which are the concentration of inhibitor where the response (or binding) is reduced by half. Experiments were performed in triplicate on three separate days.
Antagonism assays were performed at 10 μM concentration of peptides against 1 µM concentration of S. mitis-CSP-2. S. mitis-CSP-2 (1 µM) was used as the positive control (100%) while DMSO as the negative control (0%). For all figures, comX expression is presented as relative luminescence units (RLU) divided by measured cultural optical density (OD). Percent (%) ComD activation was measured by normalizing the RLU/OD value obtained for each peptide to that of the native S. mitis-CSP-2. The results are averages from three replicates and representative of three independent experiments. Error bars represent the standard error of the mean of nine values.
Figure S-8. Primary antagonism screening assay data for t he S. mitis-CSP-2 alanine scan and D-amino acid […]
determine its IC50 value.
Figure S-9. Primary antagonism screening assay data for t he S. mitis-CSP-2 truncated analogs . S. mitis- […]

[1] = system: pneumococcus ComD1 receptor; conditions: cited from earlier work
Text: (§1) Table 5 EC50 or IC50 values of select Streptococcus mitis-CSP-2–based pneumococcal QS modulators against the pneumococcus ComD1 and ComD2 and the S. mitis ComD-2 receptors ^a | column: Streptococcus pneumoniae ^b / ComD1 / EC50 or IC50∗ (nM) || In our previous work, we utilized the S. mitis-CSP-2 scaffold to develop analogs capable of modulating the two pneumococcal ComD receptors at low nanomolar concentrations ([2]). We wanted to evaluate whether the optimization of the S. mitis-CSP-2 scaffold to the pneumococcus ComD receptors affected the ability of the modified analogs to interact with the S. mitis ComD-2 receptor.

[2] = system: pneumococcus ComD2 receptor; conditions: cited from earlier work
Text: as §1, with “/ ComD2” for “/ ComD1”

[3] = system: defibrinated rabbit red blood cells; experiment: hemolysis assay; assay type: cell-based; conditions: mean ± S.D., SD
Experimental: A single colony of S. mitis ATCC 49456 was grown for 16 h at 37 °C with 5% CO2 in 5 mL THY media (pH 7.3). Overnight cultures were then diluted 1:10 in fresh THY media. Samples were prepared in clear bottom 96 -well microtiter plates. Experimental samples were prepared by adding 196 µL of the 1:10 diluted culture and 2 µL of a 1 mM S. mitis-CSP-2 and the lead S. mitis-CSP-2 analogs (lead activator, S. mitis-CSP-2-n11, and lead inhibitor, S. mitis-CSP-2-E1Af10r16), or 196 µL of fresh THY media and 2 µL of a 1 mM S. mitis-CSP-2/ S. mitis-CSP-2 analog stock.
Two µL of DMSO was added to each well. A positive control was prepared by adding 2 µL of a 1% Triton X solution and 2 µL of DMSO in 196 µL THY media, and negative controls were prepared by adding 4 µL DMSO in either 196 µL 1:10 diluted culture or 196 µL THY media. The 96-well microtiter plate was then incubated for 2 h at 37 °C with 5% CO 2, after which the optical density at 600 nm (OD600) was recorded and hemolysis was assessed. A 1 mL portion of defibrinated rabbit red blood cells ( VWR International) was aliquoted into a sterile 1.5 mL microcentrifuge tube, and centrifuged at 2,000 rpm for 2 min. Following centrifugation, the top layer was aliquoted off, and red blood cells were gently washed with sterile1 mL 1X PBS. This process was repeated for a total of three times, until following centrifugation the top layer was mostly clear. Washed red blood cells were resuspended in sterile 1 mL 1X PBS solution, and a 15 µL aliquot was added to each well of the 96 -well microtiter plate. The plate was then incubated for 30 min at 37 °C. Following incubation, the plate was centrifuged for 4 min at 4 °C at 1600 rpm .
Experimental wells were then diluted 1:5 in distilled water to prevent saturation of the detector by the positive control. The absorbance at 420 nm (OD420) was then measured for each well.
Experiments were performed in triplicate on three separate days. Data are presented as the percent hemolysis relative to the .01% Triton X positive control. Results are expressed as the mean +/ - the standard deviation of three independent experiments. […]

[4] = peptide alone with S. mitis ATCC 49456 culture

Compound: AIRQTHNIFFFLFKRR [S. mitis-CSP-2-E1AN11FF12L]
- pIC50 (S. mitis ComD-2 receptor): < 6.00
- inhibitory activity against S. pneumoniae ComD1 receptor [1]: no inhibitory activity
- inhibitory activity against S. pneumoniae ComD2 receptor [2]: no inhibitory activity

Compound: CC(C)(C)CC(C)(C)c1ccc(OCCO)cc1 [Triton X, reference compound]
- hemolysis, positive control ([3]; 0.01% Triton X in THY media): 100% ± 15%

Compound: CC[C@H](C)[C@H](NC(=O)[C@H](CC(N)=O)NC(=O)[C@H](Cc1c[nH]cn1)NC(=O)[C@@H](NC(=O)[C@H](CCC(N)=O)NC(=O)[C@H](CCCNC(=N)N)NC(=O)[C@@H](NC(=O)[C@@H](N)CCC(=O)O)[C@@H](C)CC)[C@@H](C)O)C(=O)N[C@@H](Cc1ccccc1)C(=O)N[C@@H](Cc1ccccc1)C(=O)N[C@H](CC(N)=O)C(=O)N[C@@H](Cc1ccccc1)C(=O)N[C@@H](Cc1ccccc1)C(=O)N[C@@H](CCCCN)C(=O)N[C@@H](CCCNC(=N)N)C(=O)N[C@@H](CCCNC(=N)N)C(=O)O [S. mitis-CSP-2-n11] (H-EIRQTHNIFF[dN]FFKRR-OH)
- hemolysis relative to Triton X positive control [3, 4]: -9.8% ±30%

Compound: EIRQTHNIFFNFFKRR [S. mitis-CSP-2, reference compound]
- hemolysis relative to Triton X positive control [3, 4]: -9.6% ±24%

Compound: CC[C@H](C)[C@H](NC(=O)[C@H](C)N)C(=O)N[C@@H](CCCNC(=N)N)C(=O)N[C@@H](CCC(N)=O)C(=O)N[C@H](C(=O)N[C@@H](Cc1c[nH]cn1)C(=O)N[C@@H](CC(N)=O)C(=O)N[C@H](C(=O)N[C@@H](Cc1ccccc1)C(=O)N[C@H](Cc1ccccc1)C(=O)N[C@@H](CC(N)=O)C(=O)N[C@@H](Cc1ccccc1)C(=O)N[C@@H](Cc1ccccc1)C(=O)N[C@@H](CCCCN)C(=O)N[C@@H](CCCNC(=N)N)C(=O)N[C@H](CCCNC(=N)N)C(=O)O)[C@@H](C)CC)[C@@H](C)O [S. mitis-CSP-2-E1Af10r16] (H-AIRQTHNIF[dF]NFFKR[dR]-OH)
- hemolysis relative to Triton X positive control ([3]; inhibitor together with S. mitis-CSP-2, with S. mitis ATCC 49456 culture): -3.1% ±16%
- hemolysis relative to Triton X positive control ([3]; inhibitor together with S. mitis-CSP-2 in THY media): -2.3% ±7.0%
- hemolysis relative to Triton X positive control [3, 4]: -6.9% ±19%

— PMC10714334, “Developing multispecies quorum-sensing modulators based on the Streptococcus mitis competence-stimulating peptide” (The Journal of Biological Chemistry, 2023)
